Measurements: patent US20040023924A1, “Use of xyloglucan polymers and oligomers, and derivative compounds, as phytosanitary products and biofertilizers” (priority 2000, published 2004)

Experiments:
Type in all cases: cell-based, Acer pseudoplatanus L.
[1] = tested on: 1,4 β-D-glucanase (EC 3.2.1.4); assay: Induction of a 1,4 β-D-glucanase response in elicited cells; details: 50 nM elicitor; for 1,4 β-D-glucanase response R: 42 hours; for 1,4 β-D-glucanase early response R: after 20 minutes
Description: (§1) Vegetable material: Acer pseudoplatanus L Cells in Suspension
(§2) Test: 2.10^6 Acer pseudoplatanus L. cells were elicited under circular stirring (80 rpm), in 25 ml of culture medium (without 2,4-D) by 50 nM of 2′-fucosyl lactose (compound A) or 50 nM of methyl α-L-Fuc (1→2) β-D-Gal (1→2) β-D-Xyl trisaccharide (compound B)(synthesized according to Lopez et al., 1994) or for a variable time (0 to 42 hours) in the presence or not in the presence of an effector: cycloheximide (1 μM), okadaic acid (5 nM), staurosporine (500 nM), or boroglycine (500 nM). The elicitation experiment is stopped by putting the cells in ice. The cells recovered after decantation and taken up in approximately 1 ml of elicitation buffer are the subject of a specific protein extraction.
(§3) D-glycosylhydrolase extraction. The enzyme extracts are prepared from elicited or non-elicited cells. The cells are homogenized at 0° C. in Tris-HCl buffer (50 mM pH 7.2) containing 1 M of NaCl with a Vibracell™ Bioblock sonicator, maximum power, for 3 times 1 minute. The homogenates are centrifuged at 4° C. (12000 g, 15 minutes) then dialysed and concentrated on Ultrafree™ Millipore ultrafiltration units (cut-off threshold 10 kDa). The retentates, taken up in distilled water, are crude extracts.
(§4) 1,4 β-D-glucanase activity assay. This is based on colorimetric assay (ferricyanide test of Kidby and Davidson (1973) of the cellopentaose substrate reducing units released during the hydrolysis. The reaction medium contains the enzyme extract (1 μg of proteins), reduced cellopentaose (4 μM) in 100 μl of sodium acetate buffer (0.1 M), pH 5.0); the enzymatic reaction at 40° C. develops over a variable time (1 to 3 hours).
(§5) Evaluation of the experimental data. At least 2 kinetics were carried out per sample, and per set of experiments. The reaction rate (ΔA410 minutes^−1 for example) is obtained by linear regression from 4 kinetic curves. The results are expressed by the ratio R (enzymatic activity in elicited cells/enzymatic activity in non-elicited control cells).

[2] = tested on: β-D-xylosidase (EC 3.2.1.37); assay: Induction of a β-D-xylosidase response in elicited cells; details: 50 nM elicitor; for β-D-xylosidase response R (activity in elicited cells/non-elicited control cells), maximal: 15 minutes; for β-D-xylosidase response: 42 hours; for β-D-xylosidase response R: after 1 hour
Description: as §1, §2, §3
β-D-xylosidase activity assay according to the protocol of Lee and Zeikus (1993) after incubation of the enzyme extracts (2 to 4 μg of proteins) in sodium acetate buffer (0.1 M, pH 5), at 40° C. for a variable time (90 to 210 minutes), in the presence of p-nitrophenyl β-D-xylopyranoside (p-NPX) substrate (7.3 μM). After addition of Na2CO3 (0.1 M), the products released are assayed by spectrophotometry at 410 nm.
as §5

papain (EC 3.4.22.2) = assay: Induction of a thiol-protease (papain) inhibitor in elicited cells; details: 50 nM elicitor; for Papain inhibitor potential, early reaction: after 30 minutes; for Papain inhibitor potential, late reaction: after 42 hours
Description: Vegetable Material: Acer pseudoplatanus L. Cells in Suspension
Test: 2.10^6 cells of Acer pseudoplatanus L. were elicited by 50 nM of 2′-fucosyl lactose (compound A) or by 50 nM of methyl α-L-Fuc (1→2)β-D-Gal (1→2)β-D-Xyl trisaccharide (compound B) (synthesized according to Lopez et al., 1994) for 30 minutes or for 42 hours. Inhibitors of protease (IP) were prepared according to the protocol of Walker-Simmons (1977) starting from elicited or non-elicited cells. It was verified that the viability of the cells was maintained at more than 85% for the whole duration of the experiment.
Papain activity assay: the reaction medium contains an aliquot of IP extract (equivalent to 1 or 2 μg of proteins) in sodium phosphate citrate buffer (0.1M) pH 6 enriched with cysteine-HCl (5 mM), papain (EC 3.4.22.2) (0.48 units), p-nitroanilide N-α-benzoyl-D-L-arginine (BAPNA) (0.27 mM). The activity assay is based on the absorbance measurement at 410 nm. The reaction rate is given by ΔA410 min^−1.
Evaluation of the experimental data: for a given sample, the activity of an IP inhibitor isolated from this sample is estimated by developing the protease kinetics (recording at 410 nm for IO minutes in the presence or not in the presence of a variable quantity of inhibitor). The experimental conditions adopted (incubation time, substrate, enzyme and IP extract concentrations) are those which lead to linear and reproducible kinetics. The initial reaction rate is the slope α(A410 minutes^−1) of a curve A410=f(t). For a given sample, at least three curves are plotted and the initial rate is deduced by linear regression. The protease activity modulation capacity is expressed as a % of the control activity (protease activity without IP inhibitor).
The elicitation response is evaluated according to the papain inhibition measured in the presence of a protease inhibitor prepared from cells elicited by 2′ fucosyl lactose (2A) or by methyl α-L-Fuc (12) β-D-Gal (12) β-D-Xyl trisaccharide (2B); the results are expressed as a % of the control activity (papain activity in the non-elicited cells measured without inhibitor).

[3] = tested on: 1,3 β-D-glucanase (EC 3.2.1.39); assay: Induction of a 1,3 β-D-glucanase response in elicited cells; details: 50 nM elicitor; for 1,3 β-D-glucanase response R: 42 hours; for 1,3 β-D-glucanase early response R: after 20 minutes
Description: as §1, §2, §3
as §4, with “1,3” for “1,4”, “the” for “the cellopentaose”, “units (laminarin or laminarin hexamer)” for “units”, “proteins), the substrate (5 μM of” for “proteins),”, “laminarin hexamer)” for “cellopentaose (4 μM)”
as §5

Structure (SMILES)	1,4 β-D-glucanase response R [1]	1,4 β-D-glucanase early response R [1]	β-D-xylosidase response R (activity in elicited cells/non-elicited control cells), maximal [2]	β-D-xylosidase response [2]	β-D-xylosidase response R [2]	Papain inhibitor potential, early reaction (papain (EC 3.4.22.2))	Papain inhibitor potential, late reaction (papain (EC 3.4.22.2))	1,3 β-D-glucanase response R [3]	1,3 β-D-glucanase early response R [3]
CO[C@@H]1OC[C@@H](O)[C@H](O)[C@H]1O[C@@H]1O[C@H](CO)[C@H](O)[C@H](O)[C@H]1O[C@@H]1O[C@@H](C)[C@@H](O)[C@@H](O)[C@@H]1O [compound B, methyl α-L-Fuc (1→2)β-D-Gal (1→2)β-D-Xyl]	~4	~5	5	no significant response	1	same papain inhibitor potential	lower intensity	~12	~3
C[C@@H]1O[C@@H](O[C@H]2[C@H](O[C@H]3[C@H](O)[C@@H](O)[C@H](O)O[C@@H]3CO)O[C@H](CO)[C@H](O)[C@@H]2O)[C@@H](O)[C@H](O)[C@@H]1O [compound A, α-L-Fuc(1→2)β-D-Gal(1→4)β-D-Glc]	~4	~5	9	no significant response	1	same papain inhibitor potential	lower intensity	~12	~3
